Measured values taken from patent publication US20230278972A1, “SUBSTITUTED HALOALKYL SULFONANILIDE HERBICIDES” (FMC Corporation, priority 2020, published 2023).

Experiments:
Type in all cases: in vivo
[1] = tested on: blackgrass (Alopecurus myosuroides); assay: Test A1 preemergence, blackgrass
Summary of the method: (§1)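 Pre: seeds in loam/sand blend, directed soil spray. Post: potted plants, same soil, 2–10 cm, 1–2 leaf stage. Chemicals in non-phytotoxic solvent + surfactant for both.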

corn (Zea mays) [2] = assay: Test A1 preemergence, corn
Summary of the method: as §1

[3] = tested on: Foxtail, Giant (giant foxtail, Setaria faberi); assay: Test A1 preemergence, Foxtail, Giant
Summary of the method: as §1

[4] = tested on: goosegrass (Eleusine indica); assay: Test A1 preemergence, goosegrass
Summary of the method: as §1

kochia (Bassia scoparia) [5] = assay: Test A1 preemergence, kochia
Summary of the method: as §1

[6] = tested on: Oat, Wild (wild oat, Avena fatua); assay: Test A1 preemergence, Oat, Wild
Summary of the method: as §1

[7] = tested on: Pigweed, Palmer (palmer amaranth, palmer pigweed, Amaranthus palmeri); assay: Test A1 preemergence, Pigweed, Palmer
Summary of the method: as §1

[8] = tested on: ragweed (common ragweed, Ambrosia artemisiifolia); assay: Test A1 preemergence, ragweed
Summary of the method: as §1

[9] = tested on: Ryegrass, Italian (Italian ryegrass, Lolium multiflorum); assay: Test A1 preemergence, Ryegrass, Italian
Summary of the method: as §1

soybean (Glycine max) [10] = assay: Test A1 preemergence, soybean
Summary of the method: as §1

[11] = tested on: wheat (Triticum aestivum); assay: Test A1 preemergence, wheat
Summary of the method: as §1

[12] = tested on: blackgrass (Alopecurus myosuroides); assay: Test A1 postemergence, blackgrass; details: Postemergence, 0 to 100 scale (0 no effect, 100 complete control)
Summary of the method: (§2)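 Plants were grown in a loam soil/sand blend, with test chemicals formulated in a non-phytotoxic solvent mixture containing surfactant. Preemergence treatment (corn) was a directed soil spray at planting. Postemergence treatment was applied to plants 2 to 10 cm tall at the one- to two-leaf stage.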

corn (Zea mays) [13] = assay: Test A1 postemergence, corn; details: Postemergence
Summary of the method: as §1

[14] = tested on: Foxtail, Giant (giant foxtail, Setaria faberi); assay: Test A1 postemergence, Foxtail, Giant; details: Postemergence
Summary of the method: as §2

[15] = tested on: goosegrass (Eleusine indica); assay: Test A1 postemergence, goosegrass; details: Postemergence
Summary of the method: as §2

kochia (Bassia scoparia) [16] = assay: Test A1 postemergence, kochia; details: Postemergence
Summary of the method: as §2

[17] = tested on: Oat, Wild (wild oat, Avena fatua); assay: Test A1 postemergence, Oat, Wild; details: Postemergence
Summary of the method: as §1

[18] = tested on: Pigweed, Palmer (palmer amaranth, palmer pigweed, Amaranthus palmeri); assay: Test A1 postemergence, Pigweed, Palmer; details: Postemergence
Summary of the method: as §1

[19] = tested on: ragweed (common ragweed, Ambrosia artemisiifolia); assay: Test A1 postemergence, ragweed; details: Postemergence
Summary of the method: as §1

[20] = tested on: Ryegrass, Italian (Italian ryegrass, Lolium multiflorum); assay: Test A1 postemergence, Ryegrass, Italian; details: Postemergence
Summary of the method: as §2

soybean (Glycine max) [21] = assay: Test A1 postemergence, soybean; details: Postemergence
Summary of the method: as §2

[22] = tested on: wheat (Triticum aestivum); assay: Test A1 postemergence, wheat; details: Postemergence
Summary of the method: as §2

[23] = tested on: galium (catchweed bedstraw, Galium aparine); assay: Test A1 postemergence, galium; details: Postemergence
Summary of the method: as §2

[24] = tested on: horseweed (Erigeron canadensis); assay: Test A1 postemergence, horseweed; details: Postemergence
Summary of the method: as §2

[25] = tested on: barnyardgrass (Echinochloa crus-galli); assay: Test B1 flooded paddy test, barnyardgrass; details: 250 g ai/ha, Flood, applied to paddy water, 2-leaf stage, visually evaluated after 10 to 14 days
Description: (§3) A dash (-) response means no test result.

[26] = tested on: ducksalad (Heteranthera limosa); assay: Test B1 flooded paddy test, ducksalad; details: 250 g ai/ha, Flood, applied to paddy water, 2-leaf stage, visually evaluated after 10 to 14 days
Description: as §3

rice (Oryza sativa) = assay: Test B1 flooded paddy test, rice; details: 250 g ai/ha, Flood, applied to paddy water, 2-leaf stage, visually evaluated after 10 to 14 days
Description: as §3

[27] = 31 g ai/ha, 0 to 100 scale (0 no effect, 100 complete control)
[28] = 125 g ai/ha, 0 to 100 scale, 0 no effect, 100 complete control
[29] = 31 g ai/ha, 0 to 100 scale (0 no effect, 100 complete control), 10 days

## Cc1c(C(=O)N2CCC(F)(F)CC2)cc(N(COC(=O)C(C)(C)C)S(=O)(=O)C(F)(F)F)c(C)c1C [Compound 360]
[1]; [27]
  Plant response rating, Blackgrass: 0
[1]; [28]
  Plant response rating, Blackgrass: 0
Corn (Zea mays) [2]; [27]
  Plant response rating, Corn: 0
Corn (Zea mays) [2]; [28]
  Plant response rating, Corn: 0
[3]; [27]
  Plant response rating, Foxtail, Giant: 0
[3]; [28]
  Plant response rating, Foxtail, Giant: 40
[4]; [27]
  Plant response rating, Goosegrass: 0
[4]; [28]
  Plant response rating, Goosegrass: 90
Kochia (Bassia scoparia) [5]; [27]
  Plant response rating, Kochia: 0
Kochia (Bassia scoparia) [5]; [28]
  Plant response rating, Kochia: 30
[6]; [27]
  Plant response rating, Oat, Wild: 0
[6]; [28]
  Plant response rating, Oat, Wild: 0
[7]; [27]
  Plant response rating, Pigweed, Palmer: 0
[7]; [28]
  Plant response rating, Pigweed, Palmer: 40
[8]; [27]
  Plant response rating, Ragweed: 60
[8]; [28]
  Plant response rating, Ragweed: 80
[9]; [27]
  Plant response rating, Ryegrass, Italian: 0
[9]; [28]
  Plant response rating, Ryegrass, Italian: 30
Soybean (Glycine max) [10]; [27]
  Plant response rating, Soybean: 0
Soybean (Glycine max) [10]; [28]
  Plant response rating, Soybean: 0
[11]; [27]
  Plant response rating, Wheat: 0
[11]; [28]
  Plant response rating, Wheat: 10
[12]; 31 g ai/ha, 10 days
  Plant response rating, Blackgrass: 0
[12]; 125 g ai/ha
  Plant response rating, Blackgrass: 0
Corn (Zea mays) [13]; [29]
  Plant response rating, Corn: 0
Corn (Zea mays) [13]; 125 g ai/ha, 0 to 100 scale
  Plant response rating, Corn: 0
[14]; [29]
  Plant response rating, Foxtail, Giant: 0
[14]; 125 g ai/ha, 0 to 100 scale
  Plant response rating, Foxtail, Giant: 0
[15]; [29]
  Plant response rating, Goosegrass: 0
[15]; 125 g ai/ha, 0 to 100 scale
  Plant response rating, Goosegrass: 40
Kochia (Bassia scoparia) [16]; [29]
  Plant response rating, Kochia: 30
Kochia (Bassia scoparia) [16]; 125 g ai/ha, 0 to 100 scale
  Plant response rating, Kochia: 50
[17]; [29]
  Plant response rating, Oat, Wild: 0
[17]; 125 g ai/ha, 0 to 100 scale
  Plant response rating, Oat, Wild: 0
[18]; [29]
  Plant response rating, Pigweed, Palmer: 20
[18]; 125 g ai/ha, 0 to 100 scale
  Plant response rating, Pigweed, Palmer: 40
[19]; [29]
  Plant response rating, Ragweed: 70
[19]; 125 g ai/ha, 0 to 100 scale
  Plant response rating, Ragweed: 90
[20]; [29]
  Plant response rating, Ryegrass, Italian: 0
[20]; 125 g ai/ha, 0 to 100 scale
  Plant response rating, Ryegrass, Italian: 0
Soybean (Glycine max) [21]; [29]
  Plant response rating, Soybean: 20
Soybean (Glycine max) [21]; 125 g ai/ha, 0 to 100 scale
  Plant response rating, Soybean: 40
[22]; [29]
  Plant response rating, Wheat: 0
[22]; 125 g ai/ha, 0 to 100 scale
  Plant response rating, Wheat: 0
[23]; [29]
  Plant response rating, Galium: 50
[23]; 125 g ai/ha, 0 to 100 scale
  Plant response rating, Galium: 100
[24]; [29]
  Plant response rating, Horseweed: 10
[24]; 125 g ai/ha, 0 to 100 scale
  Plant response rating, Horseweed: 70
[25]
  Plant response rating, Barnyardgrass (0 to 100 scale, 0 is no effect, 100 is complete control): 95
[26]
  Plant response rating, Ducksalad (0 to 100 scale, 0 is no effect, 100 is complete control): 65
Rice (Oryza sativa)
  Plant response rating, Rice (0 to 100 scale, 0 is no effect, 100 is complete control): 25

## COC(=O)OCN(c1cc(C2=NOC3CCCC23)c(C)cc1C)S(=O)(=O)C(F)(F)F (stereo not drawn) [Compound 315]
[1]; [27]
  Plant response rating, Blackgrass: 20
[1]; [28]
  Plant response rating, Blackgrass: 60
Corn (Zea mays) [2]; [27]
  Plant response rating, Corn: 10
Corn (Zea mays) [2]; [28]
  Plant response rating, Corn: 20
[3]; [27]
  Plant response rating, Foxtail, Giant: 70
[3]; [28]
  Plant response rating, Foxtail, Giant: 90
[4]; [27]
  Plant response rating, Goosegrass: 90
[4]; [28]
  Plant response rating, Goosegrass: 100
Kochia (Bassia scoparia) [5]; [27]
  Plant response rating, Kochia: 0
Kochia (Bassia scoparia) [5]; [28]
  Plant response rating, Kochia: 60
[6]; [27]
  Plant response rating, Oat, Wild: 0
[6]; [28]
  Plant response rating, Oat, Wild: 20
[7]; [27]
  Plant response rating, Pigweed, Palmer: 100
[7]; [28]
  Plant response rating, Pigweed, Palmer: 90
[8]; [27]
  Plant response rating, Ragweed: 20
[8]; [28]
  Plant response rating, Ragweed: 60
[9]; [27]
  Plant response rating, Ryegrass, Italian: 70
[9]; [28]
  Plant response rating, Ryegrass, Italian: 100
Soybean (Glycine max) [10]; [27]
  Plant response rating, Soybean: 40
Soybean (Glycine max) [10]; [28]
  Plant response rating, Soybean: 50
[11]; [27]
  Plant response rating, Wheat: 20
[11]; [28]
  Plant response rating, Wheat: 70
[12]; 31 g ai/ha, 10 days
  Plant response rating, Blackgrass: 0
[12]; 125 g ai/ha
  Plant response rating, Blackgrass: 0
Corn (Zea mays) [13]; [29]
  Plant response rating, Corn: 20
Corn (Zea mays) [13]; 125 g ai/ha, 0 to 100 scale
  Plant response rating, Corn: 20
[14]; [29]
  Plant response rating, Foxtail, Giant: 0
[14]; 125 g ai/ha, 0 to 100 scale
  Plant response rating, Foxtail, Giant: 20
[15]; [29]
  Plant response rating, Goosegrass: 80
[15]; 125 g ai/ha, 0 to 100 scale
  Plant response rating, Goosegrass: 80
Kochia (Bassia scoparia) [16]; [29]
  Plant response rating, Kochia: 50
Kochia (Bassia scoparia) [16]; 125 g ai/ha, 0 to 100 scale
  Plant response rating, Kochia: 80
[17]; [29]
  Plant response rating, Oat, Wild: 0
[17]; 125 g ai/ha, 0 to 100 scale
  Plant response rating, Oat, Wild: 20
[18]; [29]
  Plant response rating, Pigweed, Palmer: 30
[18]; 125 g ai/ha, 0 to 100 scale
  Plant response rating, Pigweed, Palmer: 50
[19]; [29]
  Plant response rating, Ragweed: 20
[19]; 125 g ai/ha, 0 to 100 scale
  Plant response rating, Ragweed: 80
[20]; [29]
  Plant response rating, Ryegrass, Italian: 10
[20]; 125 g ai/ha, 0 to 100 scale
  Plant response rating, Ryegrass, Italian: 70
Soybean (Glycine max) [21]; [29]
  Plant response rating, Soybean: 40
Soybean (Glycine max) [21]; 125 g ai/ha, 0 to 100 scale
  Plant response rating, Soybean: 60
[22]; [29]
  Plant response rating, Wheat: 30
[22]; 125 g ai/ha, 0 to 100 scale
  Plant response rating, Wheat: 70
[23]; [29]
  Plant response rating, Galium: 70
[23]; 125 g ai/ha, 0 to 100 scale
  Plant response rating, Galium: 90
[24]; [29]
  Plant response rating, Horseweed: 20
[24]; 125 g ai/ha, 0 to 100 scale
  Plant response rating, Horseweed: 60
[25]
  Plant response rating, Barnyardgrass (0 to 100 scale, 0 is no effect, 100 is complete control): 98
[26]
  Plant response rating, Ducksalad (0 to 100 scale, 0 is no effect, 100 is complete control): 90
Rice (Oryza sativa)
  Plant response rating, Rice (0 to 100 scale, 0 is no effect, 100 is complete control): 35
